Earlier results, collected in US20190175510A1, “PHARMACEUTICAL MATRIX FORMULATIONS COMPRISING DIMETHYL FUMARATE” (BIOGEN MA INC., priority 2014, published 2019).
Counter-ions that a name gives are not always drawn.

Settings: species not stated

Structure (SMILES): COC(=O)/C=C/C(=O)O [MMF, monomethyl fumarate]
- half-life of MMF: approximately 1 hour
